# pEC50: −log10 of the molar value.
# Target: T1, human PPARalpha (Homo sapiens, UniProt Q07869)
# T1 construct: human PPARalpha receptor (amino acids S167-Y468); expressed in transfected cells; host or cells: HEK cells (human embryo kidney), stably transfected with a pcDNA3-based plasmid
# T1 sequence (Q07869 167-468): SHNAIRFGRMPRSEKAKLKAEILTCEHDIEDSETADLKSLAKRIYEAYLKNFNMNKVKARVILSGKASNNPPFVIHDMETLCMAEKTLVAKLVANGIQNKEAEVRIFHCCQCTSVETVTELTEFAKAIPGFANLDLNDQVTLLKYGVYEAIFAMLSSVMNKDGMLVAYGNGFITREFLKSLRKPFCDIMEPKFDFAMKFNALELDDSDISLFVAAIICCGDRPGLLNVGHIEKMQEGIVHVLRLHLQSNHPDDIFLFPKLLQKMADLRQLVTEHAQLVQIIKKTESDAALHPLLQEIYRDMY
# Assay: Cellular PPARalpha assay (stably transfected HEK PPARalpha reporter cell line, luciferase)
# Format: cell-based
# Conditions: GR-GAL4-humanPPARalpha-LBD, luciferase readout
# Description: Determination of EC50 Values of PPAR Agonists in the Cellular PPARalpha Assay
# The potency of substances which bind to human PPARalpha and activate in an agonistic manner is analyzed using a stably transfected HEK cell line (HEK=human embryo kidney) which is referred to here as PPARalpha reporter cell line. It contains two genetic elements, a luciferase reporter element (pdeltaM-GAL4-Luc-Zeo) and a PPARalpha fusion protein (GR-GAL4-humanPPARalpha-LBD) which mediates expression of the luciferase reporter element depending on a PPARalpha ligand. The stably and constitutively expressed fusion protein GR-GAL4-humanPPARalpha-LBD binds in the cell nucleus of the PPARalpha reporter cell line via the GAL4 protein portion to the GAL4 DNA binding motifs 5′-upstream of the luciferase reporter element which is integrated in the genome of the cell line. There is only little expression of the luciferase reporter gene without addition of a PPARalpha ligand if fatty acid-depleted fetal calf serum (cs-FCS) is used in the assay. PPARalpha ligands bind and activate the PPARalpha fusion protein and thereby bring about expression of the luciferase reporter gene. The luciferase which is formed can be detected by means of chemiluminescence via an appropriate substrate.
# The PPARalpha reporter cell line was prepared in 2 stages. Firstly, the luciferase reporter element was constructed and stably transfected into HEK cells. For this purpose, five binding sites of the yeast transcription factor GAL4 (each 5′-CGGAGTACTGTCCTCCGAG-3′) (SEQ ID No. 1) were cloned in 5′-upstream of a 68 bp-long minimal MMTV promoter (Genbank Accession # V01175). The minimal MMTV promoter section contains a CCAAT box and a TATA element in order to enable efficient transcription by RNA polymerase II. The cloning and sequencing of the GAL4-MMTV construct took place in analogy to the description of Sambrook J. et. al. (Molecular cloning, Cold Spring Harbor Laboratory Press, 1989). Then the complete Photinus pyralis gene (Genbank Accession # M15077) was cloned in 3′-downstream of the GAL4-MMTV element. After sequencing, the luceriferase reporter element consisting of five GAL4 binding sites, MMTV promoter and luciferase gene was recloned into a plasmid which confers zeocin resistance in order to obtain the plasmid pdeltaM-GAL4-Luc-Zeo. This vector was transfected into HEK cells in accordance with the statements in Ausubel, F. M. et al. (Current protocols in molecular biology, Vol. 1-3, John Wiley & Sons, Inc., 1995).
# In a second step, the PPARalpha fusion protein (GR-GAL4-humanPPARalpha-LBD) was introduced into the stable cell clone described. For this purpose, initially the cDNA coding for the N-terminal 76 amino acids of the glucocorticoid receptor (Genbank Accession # P04150) was linked to the cDNA section coding for amino acids 1-147 of the yeast transcription factor GAL4 (Genbank Accession # P04386). The cDNA of the ligand-binding domain of the human PPARalpha receptor (amino acids S167-Y468; Genbank Accession # S74349) was cloned in at the 3′-end of this GR-GAL4 construct. The fusion construct prepared in this way (GR-GAL4-humanPPARalpha-LBD) was recloned into the plasmid pcDNA3 (from Invitrogen) in order to enable constitutive expression therein by the cytomegalovirus promoter. This plasmid was linearized with a restriction endonuclease and stably transfected into the previously described cell clone containing the luciferase reporter element. The finished PPARalpha reporter cell line which contains a luciferase reporter element and constitutively expresses the PPARalpha fusion protein (GR-GAL4-human PPARalpha-LBD) was isolated by selection with zeocin (0.5 mg/ml) and G418 (0.5 mg/ml).
# The activity of PPARalpha agonists is determined in a 3-day assay which is described below: […]
row,Structure (SMILES),pEC50
1,"CCc1ccc2c(c1)cc(C(=O)O)n2CCO[C@@H]1CCC[C@H](OCc2nc(-c3cccc(C)c3)oc2C)C1 [Example VII, (1R,3S)-5-Ethyl-1-{2-[3-(5-methyl-2-m-tolyloxazol-4-ylmethoxy)cyclohexyloxy]ethyl}-1H-indole-2-carboxylic acid]",6.33
2,"COc1ccc2cc(C(=O)O)n(CCO[C@@H]3CCC[C@H](OCc4nc(-c5cccc(C)c5)oc4C)C3)c2c1 [Example XI, (1R,3S)-6-Methoxy-1-{2-[3-(5-methyl-2-m-tolyloxazol-4-ylmethoxy)cyclohexyloxy]ethyl}-1H-indole-2-carboxylic acid]",6.44
3,"Cc1cccc(-c2nc(CO[C@H]3CCC[C@@H](OCCOc4ccccc4C(=O)O)C3)c(C)o2)c1 [Example XV, (1R,3S)-2-{2-[3-(5-Methyl-2-m-tolyloxazol-4-ylmethoxy)cyclohexyloxy]-ethoxy}benzoic acid]",6.28
4,"Cc1cccc(-c2nc(CO[C@H]3CCC[C@@H](OCCOc4cccc(C)c4[N+](=O)[O-])C3)c(C)o2)c1 [Example XXI, (1S,3R)-5-Methyl-4-{3-[2-(3-methyl-2-nitrophenoxy)ethoxy]cyclohexyloxymethyl}-2-m-tolyloxazole]",6.28

# Stronger by pEC50, values ahead:
row,pEC50,Structure (SMILES)
1,7.62,"Cc1ccc(-c2nc(CO[C@@H]3CCC[C@H](Cn4c(C(=O)O)cc5ccccc54)C3)c(C)o2)cc1 (racemic) [Example XXVI, 1-[(1S,3R)/(1R,3S)-3-(5-Methyl-2-p-tolyloxazol-4-ylmethoxy)cyclohexylmethyl]-1H-indole-2-carboxylic acid]"
2,6.97,"Cc1cccc(-c2nc(CO[C@H]3CCC[C@@H](OCCOc4cccc(C)c4C(=O)O)C3)c(C)o2)c1 [Example XIV, (1R,3S)-2-Methyl-6-{2-[3-(5-methyl-2-m-tolyloxazol-4-ylmethoxy)cyclohexyloxy]ethoxy}benzoic acid]"
3,6.65,"Cc1cccc(-c2nc(CO[C@H]3CCC[C@@H](OCCOc4cc(C(F)(F)F)sc4C(=O)O)C3)c(C)o2)c1 [Example XXIII, (1R,3S)-3-{2-[3-(5-Methyl-2-m-tolyloxazol-4-ylmethoxy)cyclohexyloxy]ethoxy}-5-trifluoromethylthiophene-2-carboxylic acid]"
4,6.48,"Cc1cccc(-c2nc(CO[C@H]3CCC[C@@H](OCCCNS(=O)(=O)C(F)(F)F)C3)c(C)o2)c1 [Example II, (1R,3S)—C,C,C-Trifluoro-N-{3-[3-(5-methyl-2-m-tolyloxazol-4-ylmethoxy)cyclohexyloxy]propyl}methanesulfonamide]"

# Source: patent US8048901B2, “1,3-substituted cycloalkyl derivatives having acidic, mostly heterocyclic groups, processes for their preparation and their use as pharmaceuticals” (Aventis Pharma Deutschland GmbH, priority 2003, dated 2011)
